For this experiment, the target named is T1, SIRT1 (Homo sapiens, UniProt Q96EB6).
T1 sequence (Q96EB6 1-747): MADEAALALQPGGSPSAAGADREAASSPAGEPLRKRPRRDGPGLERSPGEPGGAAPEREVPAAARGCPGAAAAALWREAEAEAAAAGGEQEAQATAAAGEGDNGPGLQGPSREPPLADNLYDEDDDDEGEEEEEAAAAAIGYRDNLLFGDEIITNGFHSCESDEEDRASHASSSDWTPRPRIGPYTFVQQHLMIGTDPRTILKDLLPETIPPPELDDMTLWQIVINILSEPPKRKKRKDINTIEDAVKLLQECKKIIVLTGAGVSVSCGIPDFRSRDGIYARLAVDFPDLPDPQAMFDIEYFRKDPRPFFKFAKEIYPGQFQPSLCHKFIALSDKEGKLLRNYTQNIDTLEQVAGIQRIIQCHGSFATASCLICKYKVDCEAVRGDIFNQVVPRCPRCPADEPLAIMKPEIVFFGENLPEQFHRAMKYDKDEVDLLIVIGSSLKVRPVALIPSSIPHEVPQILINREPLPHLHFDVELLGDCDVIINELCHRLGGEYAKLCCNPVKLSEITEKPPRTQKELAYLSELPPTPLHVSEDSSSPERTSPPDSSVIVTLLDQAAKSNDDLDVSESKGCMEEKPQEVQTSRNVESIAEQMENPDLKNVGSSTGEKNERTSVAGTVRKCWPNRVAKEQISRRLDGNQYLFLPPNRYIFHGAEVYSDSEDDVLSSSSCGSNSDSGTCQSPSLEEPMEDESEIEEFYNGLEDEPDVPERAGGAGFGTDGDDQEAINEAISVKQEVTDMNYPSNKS
Kind of experiment: Mass spectrometry based SIRT1 deacetylase activation assay (acetylated p53-derived peptide substrate). In kind it is biochemical. From the text:
A mass spectrometry based assay was used to identify modulators of SIRT1 activity. The mass spectrometry based assay utilizes a peptide having 20 amino acid residues as follows: Ac-EE-K(biotin)-GQSTSSHSK(Ac)NleSTEG-K(5TMR)-EE-NH2 (SEQ ID NO: 1) wherein K(Ac) is an acetylated lysine residue and Nle is a norleucine. The peptide is labeled with the fluorophore 5TMR (excitation 540 nm/emission 580 nm) at the C-terminus. The sequence of the peptide substrate is based on p53 with several modifications. In addition, the methionine residue naturally present in the sequence was replaced with the norleucine because the methionine may be susceptible to oxidation during synthesis and purification.
The mass spectrometry assay is conducted as follows: 0.5 μM peptide substrate and 120 μM βNAD^+ is incubated with 10 nM SIRT1 for 25 minutes at 25° C. in a reaction buffer (50 mM Tris-acetate pH 8, 137 mM NaCl, 2.7 mM KCl, 1 mM MgCl2, 5 mM DTT, 0.05% BSA). Test compounds may be added to the reaction as described above. […] After the 25 minute incubation with SIRT1, 10 μL of 10% formic acid is added to stop the reaction. Reactions are sealed and frozen for later mass spec analysis. Determination of the mass of the substrate peptide allows for precise determination of the degree of acetylation (i.e. starting material) as compared to deacetylated peptide (product).
A control for inhibition of sirtuin activity is conducted by adding 1 μL of 500 mM nicotinamide as a negative control at the start of the reaction (e.g., permits determination of maximum sirtuin inhibition). A control for activation of sirtuin activity is conducted using 10 nM of sirtuin protein, with 1 μL of DMSO in place of compound, to determine the amount of deacetylation of the substrate at a given timepoint within the linear range of the assay. This timepoint is the same as that used for test compounds and, within the linear range, the endpoint represents a change in velocity.
For the above assay, SIRT1 protein was expressed and purified as follows. […] The protein was expressed by induction with 1 mM IPTG as an N-terminal His-tag fusion protein at 18° C. overnight and harvested at 30,000×g. Cells were lysed with lysozyme in lysis buffer (50 mM Tris-HCl, 2 mM Tris[2-carboxyethyl]phosphine (TCEP), 10 μM ZnCl2, 200 mM NaCl) and further treated with sonication for 10 min for complete lysis. The protein was purified over a Ni-NTA column (Amersham) and fractions containing pure protein were pooled, concentrated and run over a sizing column (Sephadex S200 26/60 global). The peak containing soluble protein was collected and run on an Ion-exchange column (MonoQ). Gradient elution (200 mM-500 mM NaCl) yielded pure protein. This protein was concentrated and dialyzed against dialysis buffer (20 mM Tris-HCl, 2 mM TCEP) overnight. The protein was aliquoted and frozen at −80° C. until further use.
Sirtuin modulating compounds that activated SIRT1 were identified using the assay described above and are shown below in Table 1. The EC1.5 values for the activating compounds are represented by A (EC1.5<1.0 uM), B (EC1.5 1-25 uM), C (EC1.5 >25 uM). The percent maximum fold activation is represented by A (Fold activation >200%) or B (Fold Activation <200%).
Take `O=C(Nc1nccs1)c1cccc2[nH]c(-c3ccnc(Cl)c3)nc12` [Compound 231]: the EC1.5 result is “A (EC1.5<1.0 uM)” and the “Fold Act. (percent maximum fold activation)” value is recorded as “A (Fold activation >200%)”.
The corresponding values for `Cc1nnc(NC(=O)c2cccc3[nH]c(-c4cccc(C(F)(F)F)c4)nc23)s1` [Compound 232] are “B (EC1.5 1-25 uM)” and “A (Fold activation >200%)”.
Taken in the same sequence, the figures for `O=C(Nc1ccccn1)c1cccc2[nH]c(-c3cccc(C(F)(F)F)c3)nc12` [Compound 233] were “B (EC1.5 1-25 uM)” and “A (Fold activation >200%)”.
Taken in the same sequence, the figures for `O=C(Nc1cccnc1)c1cccc2[nH]c(-c3cccc(C(F)(F)F)c3)nc12` [Compound 234] were “A (EC1.5<1.0 uM)” and “A (Fold activation >200%)”.
Take `O=C(Nc1nccs1)c1cccc2[nH]c(-c3ccc(F)c(Cl)c3)nc12` [Compound 235]: the EC1.5 entry is reported as “B (EC1.5 1-25 uM)” and the “Fold Act. (percent maximum fold activation)” value is reported as “A (Fold activation >200%)”.
Regarding `O=C(Nc1nccs1)c1cccc2[nH]c(-c3cccc(N4CCCC4)c3)nc12` [Compound 236], the EC1.5 result is “B (EC1.5 1-25 uM)” and the “Fold Act. (percent maximum fold activation)” value is “B (Fold Activation <200%)”.
Turning to `O=C(Nc1nccs1)c1cccc2[nH]c(-c3ccncc3)nc12` [Compound 237], the EC1.5 result is on record as “B (EC1.5 1-25 uM)” and the “Fold Act. (percent maximum fold activation)” value was “B (Fold Activation <200%)”.
The corresponding values for `O=C(Nc1nccs1)c1cccc2[nH]c(-c3nccs3)nc12` [Compound 238] are “B (EC1.5 1-25 uM)” and “B (Fold Activation <200%)”.
The corresponding values for `O=C(Nc1nncs1)c1cccc2[nH]c(-c3cccc(C(F)(F)F)c3)nc12` [Compound 239] are “C (EC1.5 >25 uM)” and “B (Fold Activation <200%)”.
Taken in the same sequence, the figures for `CC(C)(C)c1nnc(NC(=O)c2cccc3[nH]c(-c4cccc(C(F)(F)F)c4)nc23)s1` [Compound 240] were “C (EC1.5 >25 uM)” and “B (Fold Activation <200%)”.
`O=C(Nc1ncccn1)c1cccc2[nH]c(-c3cccc(C(F)(F)F)c3)nc12` [Compound 241]: the EC1.5 result is “C (EC1.5 >25 uM)” and the “Fold Act. (percent maximum fold activation)” value is “B (Fold Activation <200%)”.
The corresponding values for `O=C(Nc1ccncc1)c1cccc2[nH]c(-c3cccc(C(F)(F)F)c3)nc12` [Compound 242] are “B (EC1.5 1-25 uM)” and “B (Fold Activation <200%)”.
The corresponding values for `O=C(Nc1cccnc1)c1cccc2[nH]c(-c3ccccc3C(F)(F)F)nc12` [Compound 243] are “A (EC1.5<1.0 uM)” and “A (Fold activation >200%)”.
In the case of `Cc1nc(-c2nc3c(C(=O)Nc4nccs4)cccc3[nH]2)c(C)o1` [Compound 244], the EC1.5 entry is on record as “B (EC1.5 1-25 uM)” and the “Fold Act. (percent maximum fold activation)” value is on record as “A (Fold activation >200%)”.
Taken in the same sequence, the figures for `O=C(Nc1nccs1)c1cccc2[nH]c(-c3cccnc3Cl)nc12` [Compound 245] were “B (EC1.5 1-25 uM)” and “A (Fold activation >200%)”.
Consider `O=C(Nc1nccs1)c1cccc2[nH]c(-c3ccc(Cl)nc3)nc12` [Compound 246], for which the EC1.5 entry is given as “B (EC1.5 1-25 uM)” and the “Fold Act. (percent maximum fold activation)” value is on record as “B (Fold Activation <200%)”.
Take `O=C(Nc1nccs1)c1cccc2[nH]c(-c3ccc(N4CCOCC4)nc3)nc12` [Compound 247, 2-(6-morpholinopyridin-3-yl)-N-(thiazol-2-yl)-1H-benzo[d]imidazole-4-carboxamide]: the EC1.5 entry is reported as “A (EC1.5<1.0 uM)” and the “Fold Act. (percent maximum fold activation)” value was “A (Fold activation >200%)”.
Taken in the same sequence, the figures for `O=C(Nc1ccccn1)c1cccc2[nH]c(-c3ccccc3C(F)(F)F)nc12` [Compound 248] were “B (EC1.5 1-25 uM)” and “A (Fold activation >200%)”.
